Source: ChEMBL document CHEMBL3734731 (Medchemcomm, 2015)
Numbered stars: 1 amine (or outer) side, 2 acyl side, 3 side chain; on linkers, the order of the positions; unused ones are H or OH. Square brackets hold non-standard residues; d marks the D form. Peptide text beside a SMILES is read from it. NMeF = CN[C@@H](Cc1ccccc1)C(=O)O; Aad = N[C@@H](CCCC(=O)O)C(=O)O; Oxalyl = O=C(C(=O)[*:2])[*:1]

What was measured:
Neuromedin-K receptor [1] = target: T1, Neuromedin-K receptor (Homo sapiens, UniProt P29371); assay: Displacement of ([125I]His3-MePhe7)-NKB from NK3 receptor (unknown origin) expressed in CHO cells by scintillation counter; assay type: cell-based
T1 sequence (P29371 whole entry): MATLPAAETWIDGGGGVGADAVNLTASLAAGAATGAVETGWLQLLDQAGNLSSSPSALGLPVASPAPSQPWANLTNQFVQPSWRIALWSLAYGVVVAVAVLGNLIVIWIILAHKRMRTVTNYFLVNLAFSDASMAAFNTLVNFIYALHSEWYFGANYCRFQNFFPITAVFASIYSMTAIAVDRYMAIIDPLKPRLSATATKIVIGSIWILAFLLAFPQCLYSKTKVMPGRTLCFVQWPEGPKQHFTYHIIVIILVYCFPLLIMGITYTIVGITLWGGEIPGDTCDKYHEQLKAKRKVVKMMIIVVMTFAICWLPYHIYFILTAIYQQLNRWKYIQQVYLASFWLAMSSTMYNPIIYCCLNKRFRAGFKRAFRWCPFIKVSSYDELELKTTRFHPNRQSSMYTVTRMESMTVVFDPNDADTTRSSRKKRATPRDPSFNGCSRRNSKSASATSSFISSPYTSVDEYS

Substance-K receptor = target: T2, Substance-K receptor (Homo sapiens, UniProt P21452); assay: Displacement of [125I]-NKA from NK2 receptor (unknown origin) expressed in CHO cells by scintillation counter; assay type: cell-based
T2 sequence (P21452 whole entry): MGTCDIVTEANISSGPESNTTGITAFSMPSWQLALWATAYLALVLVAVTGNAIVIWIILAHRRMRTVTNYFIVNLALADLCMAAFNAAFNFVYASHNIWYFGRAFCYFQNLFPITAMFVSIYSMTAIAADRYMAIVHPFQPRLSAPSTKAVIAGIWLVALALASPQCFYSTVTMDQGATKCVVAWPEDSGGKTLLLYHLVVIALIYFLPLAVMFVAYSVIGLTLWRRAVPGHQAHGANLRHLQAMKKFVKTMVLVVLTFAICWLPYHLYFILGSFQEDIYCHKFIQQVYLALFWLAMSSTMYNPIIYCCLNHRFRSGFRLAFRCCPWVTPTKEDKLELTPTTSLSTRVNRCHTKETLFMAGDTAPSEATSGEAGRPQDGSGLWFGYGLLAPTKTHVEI

Neuromedin-K receptor [2] = target: T3, Neuromedin-K receptor (Rattus norvegicus, UniProt P16177); assay: Agonist activity at rat NK3 receptor expressed in CHO cells assessed as calcium influx relative to 100 nM senktide; assay type: functional, cell-based
T3 sequence (P16177 whole entry): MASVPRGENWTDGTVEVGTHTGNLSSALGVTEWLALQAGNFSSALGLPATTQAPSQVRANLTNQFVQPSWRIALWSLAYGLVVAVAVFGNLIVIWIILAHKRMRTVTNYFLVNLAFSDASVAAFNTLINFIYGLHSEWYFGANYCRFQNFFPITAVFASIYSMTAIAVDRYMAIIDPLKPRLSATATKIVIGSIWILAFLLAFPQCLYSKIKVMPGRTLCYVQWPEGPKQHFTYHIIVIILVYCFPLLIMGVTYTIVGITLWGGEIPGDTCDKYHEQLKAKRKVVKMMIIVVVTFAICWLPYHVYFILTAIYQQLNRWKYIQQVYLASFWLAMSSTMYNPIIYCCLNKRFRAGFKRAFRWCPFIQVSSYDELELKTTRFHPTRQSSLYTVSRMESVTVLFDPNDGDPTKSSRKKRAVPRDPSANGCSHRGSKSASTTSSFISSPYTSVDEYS

[3] = target: T4, Neuromedin-K receptor (Homo sapiens) (UniProt P29371); assay: Potency index, ratio of EC50 for […] to EC50 for test compound for agonist activity at human NK3 receptor
T4 sequence (whole entry): T1 sequence (P29371 whole entry)

Substance-P receptor = Substance-P receptor (Homo sapiens, UniProt P25103); assay: Displacement of [125I]-BH-SP from NK1 receptor (unknown origin) expressed in CHO cells by scintillation counter; assay type: cell-based
Substance-P receptor, sequence (P25103 whole entry): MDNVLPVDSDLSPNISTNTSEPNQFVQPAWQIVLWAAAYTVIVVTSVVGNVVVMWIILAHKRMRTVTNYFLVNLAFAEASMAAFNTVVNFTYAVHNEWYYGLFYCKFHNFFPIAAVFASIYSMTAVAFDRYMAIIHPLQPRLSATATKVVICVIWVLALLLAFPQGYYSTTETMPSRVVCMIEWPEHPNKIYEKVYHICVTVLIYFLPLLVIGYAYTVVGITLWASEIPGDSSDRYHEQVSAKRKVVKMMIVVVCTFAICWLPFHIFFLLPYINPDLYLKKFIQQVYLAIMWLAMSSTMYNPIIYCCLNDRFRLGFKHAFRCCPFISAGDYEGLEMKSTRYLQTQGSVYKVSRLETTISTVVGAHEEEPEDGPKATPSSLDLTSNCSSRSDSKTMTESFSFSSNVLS

Neprilysin (NEP 24.11) = Neprilysin (NEP 24.11) (Homo sapiens, UniProt P08473); assay: Stability of compound assessed as NEP 24.11 (unknown origin)-mediated drug degradation after 24 hrs by HPLC analysis; assay type: ADME; details: NEP 24.11 (neprilysin) enzyme
Neprilysin (NEP 24.11), sequence (P08473 whole entry): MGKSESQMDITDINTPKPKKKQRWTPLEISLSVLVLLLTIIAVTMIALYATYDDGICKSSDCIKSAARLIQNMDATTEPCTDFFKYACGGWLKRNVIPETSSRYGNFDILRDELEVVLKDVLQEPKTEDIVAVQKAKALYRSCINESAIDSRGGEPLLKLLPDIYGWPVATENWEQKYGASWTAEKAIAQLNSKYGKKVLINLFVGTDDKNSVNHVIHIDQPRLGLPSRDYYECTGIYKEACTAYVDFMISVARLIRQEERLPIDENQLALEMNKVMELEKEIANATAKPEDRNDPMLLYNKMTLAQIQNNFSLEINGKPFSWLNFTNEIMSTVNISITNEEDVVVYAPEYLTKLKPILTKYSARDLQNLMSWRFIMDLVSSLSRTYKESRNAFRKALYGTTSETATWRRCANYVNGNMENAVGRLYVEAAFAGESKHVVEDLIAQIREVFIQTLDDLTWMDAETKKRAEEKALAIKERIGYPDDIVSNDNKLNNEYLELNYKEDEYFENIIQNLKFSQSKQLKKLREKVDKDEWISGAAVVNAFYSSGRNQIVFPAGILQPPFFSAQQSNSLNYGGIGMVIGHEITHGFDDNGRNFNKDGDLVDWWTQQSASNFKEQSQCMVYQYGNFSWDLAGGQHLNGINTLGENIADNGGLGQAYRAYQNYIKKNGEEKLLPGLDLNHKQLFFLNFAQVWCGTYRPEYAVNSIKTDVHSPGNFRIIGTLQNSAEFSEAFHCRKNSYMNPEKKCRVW

[4] = Metabolic stability in goat serum by HPLC analysis; assay type: ADME, Capra hircus
Neuromedin-K receptor [5] = target: T1, Neuromedin-K receptor; assay: Agonist activity at human NK3 receptor expressed in CHO cells assessed as calcium influx relative to 100 nM senktide; assay type: functional, cell-based
Serum [6] = assay: Metabolic stability in rat serum by HPLC analysis; assay type: ADME
[7] = Agonist activity at goat NK3 receptor expressed in CHO cells assessed as calcium influx relative to 100 nM senktide; assay type: cell-based; details: Capra hircus
Serum [8] = assay: Metabolic stability in cattle serum by HPLC analysis; assay type: ADME, Bos taurus
[9] = Agonist activity at cattle NK3 receptor expressed in CHO cells assessed as calcium influx relative to 100 nM senktide; assay type: cell-based
[10] = Induction of periodic burst of multiple-unit activity volleys in OVX goat assessed as time duration of effect at 200 nmol, iv; assay type: functional, Capra hircus
[11] = Induction of periodic burst of multiple-unit activity volleys in OVX goat assessed as number of ligand-induced multiple-unit activity volleys at 200 nmol, iv; assay type: functional, Capra hircus

CSCC[C@H](NC(=O)[C@H](CC(C)C)NC(=O)CNC(=O)[C@H](Cc1ccccc1)N(C)C(=O)[C@H](Cc1ccccc1)NC(=O)[C@H](CCC(=O)O)NC(=O)C(=O)O)C(N)=O
IC50 (Neuromedin-K receptor [1]): 0.43 nM | IC50 (Substance-K receptor): > 10000 nM | EC50 (Neuromedin-K receptor [2]): 0.013 nM | Ratio EC50 [3]: 7 | IC50 (Substance-P receptor): > 10000 nM | metabolised at 24 h (Neprilysin (NEP 24.11)): > 70% | Stability [4]: Stable | EC50 (Neuromedin-K receptor [5]): 0.0091 nM | Stability (Serum [6]): Stable | EC50 [7]: 0.012 nM | Stability (Serum [8]): Stable | EC50 [9]: 0.169 nM

CSCC[C@H](NC(=O)[C@H](CC(C)C)NC(=O)CNC(=O)[C@H](Cc1ccccc1)N(C)C(=O)[C@H](Cc1ccccc1)NC(=O)[C@H](CCCC(=O)O)NC(=O)C(=O)O)C(N)=O (Oxalyl-[Aad]F[NMeF]GLM-NH2)
IC50 (Neuromedin-K receptor [1]): 1.4 nM | IC50 (Substance-K receptor): > 10000 nM | EC50 (Neuromedin-K receptor [2]): 0.0072 nM | IC50 (Substance-P receptor): > 10000 nM | metabolised at 24 h (Neprilysin (NEP 24.11)): > 70% | EC50 (Neuromedin-K receptor [5]): 0.0074 nM | EC50 [7]: 0.0093 nM | EC50 [9]: 0.15 nM

CSCC[C@H](NC(=O)[C@H](CC(C)C)NC(=O)CNC(=O)[C@H](Cc1ccccc1)N(C)C(=O)[C@H](Cc1ccccc1)NC(=O)[C@H](CC(=O)O)NC(=O)CCC(=O)O)C(N)=O [SENKTIDE]
Time [10]: 47.2 min | IC50 (Substance-K receptor): > 10000 nM | Stability [4]: Stable | Stability (Serum [6]): Stable | EC50 [7]: 0.019 nM | Activity [11]: 2.6 | Stability (Serum [8]): Stable | EC50 [9]: 0.61 nM

CSCC[C@H](NC(=O)[C@H](CC(C)C)NC(=O)CNC(=O)[C@H](Cc1ccccc1)N(C)C(=O)[C@H](Cc1ccccc1)NC(=O)[C@@H](CCC(=O)O)NC(=O)C(=O)O)C(N)=O
Time [10]: 50.4 min | IC50 (Neuromedin-K receptor [1]): 0.51 nM | IC50 (Substance-K receptor): > 10000 nM | EC50 (Neuromedin-K receptor [2]): 0.0099 nM | Ratio EC50 [3]: 7 | IC50 (Substance-P receptor): > 10000 nM | Stability [4]: Stable | EC50 (Neuromedin-K receptor [5]): 0.014 nM | Stability (Serum [6]): Stable | EC50 [7]: 0.0094 nM | Activity [11]: 2.7 | Stability (Serum [8]): Stable | EC50 [9]: 0.152 nM
